# Measurements: patent US6498164B1, “Barbituric acid derivative and preventive and therapeutic agent for bone and cartilage containing the same” (Aventis Pharma S.A., priority 1998, dated 2002)
# Test system: osteocytes containing osteoclasts
# Test: Pit formation assay (bone resorption inhibition on ivory slices)
# Type: cell-based, ICR mice
# Conditions: compound 1 × 10^−5 M, ivory piece, 3 days culture; for inhibition at 10 µM: Mus musculus, Osteoclast, 72 h, 0% = no compound with rPTH 1×10^−8 M, 100% = no resorption cavity, read-out: Inhibiting rate; for Number of resorption cavity (mean ± SD): rPTH 1×10^−8 M
# Experimental: ICR mice 11-12 days old (Charles River) were subjected to euthanasia through ether anesthesia, and disinfected by dipping in 70% ethanol immediately. Subsequently, a femur and a shank of a mouse was removed, chopped in an -MEM culture medium (Flow Labs Corp.) containing 5% FBS (Irving Scientific Corp.), 100 U/mL penicillin, and 100 µg/mL streptomycin. Supernatant obtained by pipetting was collected, washed with culture medium solution, suspended in a solution containing 5% FBS and -MEM culture medium to yield osteocytes containing osteoclasts. Supernatant of osteocyte suspending solution was taken 3 minutes after standing still to pass through meshes (Cell Strainer, 70 m, Falcon Corp.). The filtrate was adjusted to the concentration of 1 107 cells/mL to use for pit formation assay.
# (2) Test by the pit formation assay
# An ivory piece was cut into slices in 150 m thickness by using a precision, low speed cutter (Buehler Corp.) and punched to make a cylinderial holes in 6 mm diameter. The ivory piece was dipped in 70% ethanol, treated by sonication for 5 minutes twice, and washed with sterilized PBS three times and with culture medium twice. The ivory piece was put in pits of a 96-pit culture plate (Falcon Corp.), 100 μl of culture medium, that contains a chemical compound of the present invention adjusted to a concentration of 2×10^−5 M, was poured into each pit, and 100 μL of culture medium, that contains 1×10^7 osteocytes/mL previously prepared, into each pit (the final concentration of the compound was 1×10^−5 M), and finally cultivation was carried out in an incubator under 37° C. and 10% CO2 for 3 days. Then cells on an ivory piece were removed in 2 M sodium hydroxide solution, washed with water and methanol to stain resorption cavity with Coomassie Brilliant Blue and count numbers of absorbed cavities under a microscope. The inhibition rate of bone resorption was calculated on the basis that resorption cavity was assumed 0% in the case of no addition of the compound under the presence of rPTH (1×10^−8 M) in the solution and the case of no resorption cavity was assumed 100%. A good result was yielded in the same experiment with variation of resorption cavity numbers among experimental groups due to a difference among proportions of various cell in the solution, in which osteocytes were suspended, and also among the lot numbers of used animals.
compound,measurement,value
"CC(C)CC(=O)C1C(=O)N(Cc2ccccc2)C(=O)N(Cc2ccccc2)C1=O [Compound No. 1, 1,3-Dibenzyl-5-(3-methyl-1-oxobutyl)barbituric Acid]",inhibition at 10 µM,99.2%
same,Number of resorption cavity (mean ± SD),1.0 ± 0.5
"CC(C)CCN1C(=O)C(C(=O)CC(C)C)C(=O)N(CCC(C)C)C1=O [Compound No. 4, 1,3-Bis(3-methylbutyl)-5-(3-methyl-1-oxobutyl)barbituric Acid]",inhibition at 10 µM,90.6%
same,Number of resorption cavity (mean ± SD),21.1 ± 4.3
"O=C(Cc1ccccc1)C1C(=O)N(Cc2ccccc2)C(=O)N(Cc2ccccc2)C1=O [Compound No. 2, 1,3-Dibenzyl-5-(phenylacetyl)barbituric Acid]",inhibition at 10 µM,99%
same,Number of resorption cavity (mean ± SD),2.2 ± 0.6
"O=C(Cc1cccs1)C1C(=O)N(Cc2ccccc2)C(=O)N(Cc2ccccc2)C1=O [Compound No. 3, 1,3-Dibenzyl-5-(2-thienylacetyl)barbituric Acid]",inhibition at 10 µM,96.7%
same,Number of resorption cavity (mean ± SD),7.0 ± 1.7
